pIC50: −log10 of the molar value.

Broadly, the pIC50 is −log10 of the IC50, conventionally taken in molar units. Higher therefore signals a small IC50.

The target in the first experiment is T1, LSD1 (Homo sapiens, UniProt O60341).
T1 construct: purchased Cayman Chemical Company 700120
Test: not given
Type of experiment: biochemical.
Conditions: not given
Turning to `COc1ccc(Cl)cc1C(=O)NNC(=O)c1cc(S(=O)(=O)N2CCOCC2)ccc1F` [Compound 6], the negative logarithm of the IC50 (pIC50) was less than 5.52.

Consider `O=C(NNC(=O)c1cc(S(=O)(=O)N2CCOCC2)ccc1F)c1cccc(Cl)c1` [Compound 7], for which the pIC50 was less than 5.52. As to `CCN(CC)S(=O)(=O)c1ccc(F)c(C(=O)NNC(=O)c2ccc(C)cc2)c1` [Compound 8], the pIC50 was less than 5.52.

With `C/C(=N\NC(=O)c1cccc(S(=O)(=O)N2CCOCC2)c1)c1cc(Cl)ccc1O` [Compound 12, (E)-N'-(1-(5-chloro-2-hydroxyphenyl)ethylidene)-3-(morpholinosulfonyl)benzohydrazide], the pIC50 is 7.89. `C/C(=N\NC(=O)c1cccc(S(=O)(=O)N2CCOCC2)c1)c1cccc(Cl)c1F` [Compound 13] showed a negative logarithm of the IC50 (pIC50) of less than 5.52.

The compound `C/C(=N\NC(=O)c1ccccc1)c1c(O)cccc1O` [Compound 14] had a pIC50 of less than 5.52.

On to `C/C(=N\NC(=O)c1cccc(S(=O)(=O)N2CCOCC2)c1)c1ccnc(Cl)c1` [Compound 15], for which the pIC50 was less than 5.52.

Turning to `C/C(=N\NC(=O)c1cccc(S(=O)(=O)N2CCOCC2)c1)c1cc(Cl)ccc1Cl` [Compound 16], the negative logarithm of the IC50 (pIC50) is less than 5.52. Consider `C/C(=N\NC(=O)c1ccc(Cl)c(Br)c1)c1cc(Cl)ccc1O` [Compound 17], for which the pIC50 is less than 5.52. The compound `C/C(=N\NC(=O)c1cnc(Cl)c(Br)c1)c1cc(Cl)ccc1O` [Compound 19] showed a pIC50 of less than 5.52. For the compound `C/C(=N\NC(=O)c1cncc(Cl)c1)c1cc(Cl)ccc1O` [Compound 20], the pIC50 is less than 5.52. On the same count and under the same terms, to `CC/C(=N\NC(=O)c1cccc(S(=O)(=O)N2CCOCC2)c1)c1cc(Cl)ccc1O` [Compound 21, (E)-N'-(1-(5-CHLORO-2-HYDROXYPHENYL)PROPYLIDENE)-3-(MORPHOLINOSULFONYL)BENZOHYDRAZIDE] belongs less than 5.52. On the same count and under the same terms, with `C/C(=N\NC(=O)c1cccc(S(=O)(=O)N2CCOCC2)c1)c1cccnc1` [Compound 22] the figure was less than 5.52; with `C/C(=N\NC(=O)c1cccc(S(=O)(=O)N2CCOCC2)c1)c1cc(Cl)ccc1F` [Compound 27, (E)-N'-(1-(5-chloro-2-fluorophenyl)ethylidene)-3-(morpholinosulfonyl)benzohydrazide], less than 5.52; with `C/C(=N\NC(=O)c1ccccc1S(=O)(=O)N1CCOCC1)c1cc(Cl)ccc1O` [Compound 28, (E)-N'-(1-(5-chloro-2-hydroxyphenyl)ethylidene)-2-(morpholinosulfonyl)benzohydrazide], less than 5.52.

`C/C(=N\NC(=O)c1cccc(S(=O)(=O)N2CCOCC2)c1)c1cc(Cl)ccc1[N+](=O)[O-]` [Compound 32, (E)-N'-(1-(5-chloro-2-nitrophenyl)ethylidene)-3-(morpholinosulfonyl)benzohydrazide]: the pIC50 was less than 5.52. For the compound `Cc1cn(C(=O)c2cccc(S(=O)(=O)N3CCOCC3)c2)nc1-c1cc(Cl)ccc1O` [Compound 37, (3-(5-chloro-2-hydroxyphenyl)-4-methyl-1H-pyrazol-1-yl)(3-(morpholinosulfonyl)phenyl)methanone], the pIC50 is less than 5.52.

The next experiment relates to heme oxygenase 1 (HMOX1). Kind of experiment: Expression array experiments. Type of experiment: cell-based. The conditions noted are these: multiple cell lines; data not shown. On the procedure:
As HMOX1 is known to be regulated by H3 methylation in the promoter (Krieg, A. J., et al. Mol Cell Biol 2010, 30 (1), 344-53), the effect of the test compounds on HMOX1 expression in T-47D cells was determined (see Tables 6 and 7).
Take `C/C(=N\NC(=O)c1cccc(S(=O)(=O)N2CCOCC2)c1)c1cc(Cl)ccc1O` [Compound 12, (E)-N'-(1-(5-chloro-2-hydroxyphenyl)ethylidene)-3-(morpholinosulfonyl)benzohydrazide]: the “transcriptional changes, HMOX1” value is recorded as “one of the most consistently up-regulated genes”.
